Patent publication US20080014255A1, “Liposome bonded with antibody and polyalkylene glycol” (Mitsubishi Chemical Corporation, priority 1999, published 2008)

Assay: Pharmacokinetic test: plasma DXR concentration after tail vein administration of liposomes
Format: in vivo, Male BALB/cAjcl mice
Settings: free (leaked) DXR
Protocol: Male BALB/cAjcl mice (6-week old) were used in experiments. A mouse group consisting of four mice was used for each of the liposomes, and one untreated mouse was used as a blank in the experiment. The liposomes were administered into the tail vein at the dose of 2 mg/kg as DXR. After 16 hours from the administration, a Nembutal injection solution (Dainippon Pharmaceutical Co., Ltd.) was intraperitoneally administered to the mice and thoracotomy was performed under anesthetization to collect blood. Blood plasma was separated and used for analysis of DXR.
100 μL of the plasma was added with 1 mL of 0.3 M hydrochloric acid/50% ethanol (hydrochloric ethanol) and heated at 60° C. for 10 minutes to extract DXR. The extract was cooled to 4° C. and centrifuged at 15,000 rpm for 10 minutes to collect a supernatant. The sample was diluted 4 times with hydrochloric ethanol and its fluorescence was measured at a fluorescence wavelength of 590 nm with an excitation wavelength of 490 nm. A calibration curve was prepared by using DXR diluted with hydrochloric ethanol to known concentrations and used in quantification of DXR in plasma. The recovery of DXR from the mouse plasma was 95 to 98% in a range of […] of DXR (Reference: Cancer Res., 47, 4471, 1987).
DXR in blood plasma was quantified in the same manner as in Example 2.

disappearance from blood of DXR leaked from the liposomes: rapidly disappear from blood
Compound: COc1cccc2c1C(=O)c1c(O)c3c(c(O)c1C2=O)C[C@@](O)(C(=O)CO)C[C@@H]3O[C@H]1C[C@H](N)[C@H](O)[C@H](C)O1 [DXR, doxorubicin]
